Reference: patent US8569298B2, “Pyridine compounds” (Astrazeneca AB, priority 2008, dated 2013)

Molecular target: T1, FAK enzyme (6 His tagged kinase domain, GenBank NP—722560) (Homo sapiens, UniProt Q05397)
T1 construct: 6 His; made in house; host or cells: insect cell culture infected with baculovirus
Assay: In vitro enzyme assay (a): sandwich ELISA of FAK tyrosine kinase activity on polyGAT peptide, TMB colorimetric endpoint
Assay type: biochemical
Details: in vitro Enzyme Assay test (a); ATP at Km; geometric mean of n > 1 measurements, values marked * tested once
How it was run: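 Recombinant His-tagged FAK kinase domain (baculovirus/insect cells) phosphorylated plate-coated polyGAT with ATP at Km, MgCl2/MnCl2, HEPES pH 7.4, 25 min at room temperature before EDTA stop. Phosphotyrosine detected by HRP-4G10 antibody and TMB absorbance at 450 nm; IC50 from 12-point curve anchored to DMSO and staurosporine controls.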

T1 sequence (Q05397 422-680 limits assumed): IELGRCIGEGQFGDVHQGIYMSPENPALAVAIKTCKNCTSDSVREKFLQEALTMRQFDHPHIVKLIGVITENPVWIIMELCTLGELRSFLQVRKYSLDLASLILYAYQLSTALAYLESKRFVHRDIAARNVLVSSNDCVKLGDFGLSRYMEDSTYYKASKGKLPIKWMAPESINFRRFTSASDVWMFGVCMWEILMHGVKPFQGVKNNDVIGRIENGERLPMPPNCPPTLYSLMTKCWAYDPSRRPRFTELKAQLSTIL

IC50 | Structure (SMILES)
408 nM | CN1CCc2cccc(Nc3cc(Nc4cnn(C)c4)ncc3F)c2C1=O [Example 4.14, 8-[[5-fluoro-2-[(1-methylpyrazol-4-yl)amino]-4-pyridyl]amino]-2-methyl-3,4-dihydroisoquinolin-1-one]
454 nM | CN1CCc2cccc(Nc3cc(Nc4cnn(C5CCOCC5)c4)ncc3F)c2C1=O [Example 4.15, 8-[[5-fluoro-2-[(1-tetrahydropyran-4-ylpyrazol-4-yl)amino]-4-pyridyl]amino]-2-methyl-3,4-dihydroisoquinolin-1-one]
465 nM | CN1CCC(n2cc(Nc3cc(Nc4cccc5c4C(=O)N(C)CC5)c(F)cn3)cn2)CC1 [Example 4.16, 8[[5-fluoro-2-[[1-(1-methyl-4-piperidyl)pyrazol-4-yl]amino]-4-pyridyl]amino]-2-methyl-3,4-dihydroisoquinolin-1-one]
189 nM | CN1CCc2cccc(Nc3cc(Nc4cnn(C5CCNCC5)c4)ncc3F)c2C1=O [Example 4.17, 8-[[5-Fluoro-2-[[1-(4-piperidyl)pyrazol-4-yl]amino]-4-pyridyl]amino]-2-methyl-3,4-dihydroisoquinolin-1-one]
676 nM | CN1CCc2cccc(Nc3cc(Nc4cnn(C5CCCNC5)c4)ncc3F)c2C1=O (stereo not drawn) [Example 4.18, 8-[[5-fluoro-2-[[1-(3-piperidyl)pyrazol-4-yl]amino]-4-pyridyl]amino]-2-methyl-3,4-dihydroisoquinolin-1-one]
83 nM | CN1CCc2cccc(Nc3cc(Nc4ccn(C5CCNCC5)n4)ncc3F)c2C1=O [Example 4.19, 8-[[5-fluoro-2-[[1-(4-piperidyl)pyrazol-3-yl]amino]-4-pyridyl]amino]-2-methyl-3,4-dihydroisoquinolin-1-one]
304 nM | CN1CCc2cccc(Nc3cc(Nc4cnn(CC(=O)N5CCCC5)c4)ncc3F)c2C1=O [Example 4.20, 8-[[5-Fluoro-2-[[1-(2-oxo-2-pyrrolidin-1-yl-ethyl)pyrazol-4-yl]amino]-4-pyridyl]amino]-2-methyl-3,4-dihydroisoquinolin-1-one]
188 nM | CN(C)CCCNC(=O)Cn1cc(Nc2cc(Nc3cccc4c3C(=O)N(C)CC4)c(F)cn2)cn1 [Example 4.21, N-(3-dimethylaminopropyl)-2-[4-[[5-fluoro-4-[(2-methyl-1-oxo-3,4-dihydroisoquinolin-8-yl)amino]-2-pyridyl]amino]pyrazol-1-yl]acetamide]
364 nM | CN(C)CCNC(=O)Cn1cc(Nc2cc(Nc3cccc4c3C(=O)N(C)CC4)c(F)cn2)cn1 [Example 4.22, N-(2-dimethylaminoethyl)-2-[4-[[5-fluoro-4-[(2-methyl-1-oxo-3,4-dihydroisoquinolin-8-yl)amino]-2-pyridyl]amino]pyrazol-1-yl]acetamide]
449 nM | COCCNC(=O)Cn1cc(Nc2cc(Nc3cccc4c3C(=O)N(C)CC4)c(F)cn2)cn1 [Example 4.23, 2-[4-[[5-fluoro-4-[(2-methyl-1-oxo-3,4-dihydroisoquinolin-8-yl)amino]-2-pyridyl]amino]pyrazol-1-yl]-N-(2-methoxyethyl)acetamide]
294 nM | COCCN(C)C(=O)Cn1cc(Nc2cc(Nc3cccc4c3C(=O)N(C)CC4)c(F)cn2)cn1 [Example 4.24, 2-[4-[[5-fluoro-4-[(2-methyl-1-oxo-3,4-dihydroisoquinolin-8-yl)amino]-2-pyridyl]amino]pyrazol-1-yl]-N-(2-methoxyethyl)-N-methyl-acetamide]
204 nM | CN1CCc2cccc(Nc3cc(Nc4cnn(CC(=O)N5CCOCC5)c4)ncc3F)c2C1=O [Example 4.25, 8-[[5-fluoro-2-[[1-(2-morpholino-2-oxo-ethyl)pyrazol-4-yl]amino]-4-pyridyl]amino]-2-methyl-3,4-dihydroisoquinolin-1-one]
199 nM | CN1CCN(C(=O)Cn2cc(Nc3cc(Nc4cccc5c4C(=O)N(C)CC5)c(F)cn3)cn2)CC1 [Example 4.26, 8-[[5-fluoro-2-[[1-[2-(4-methylpiperazin-1-yl)-2-oxo-ethyl]pyrazol-4-yl]amino]-4-pyridyl]amino]-2-methyl-3,4-dihydroisoquinolin-1-one]
72 nM | CNC1CCN(C(=O)Cn2cc(Nc3cc(Nc4cccc5c4C(=O)N(C)CC5)c(F)cn3)cn2)C1 (stereo not drawn) [Example 4.27, 8-[[5-Fluoro-2-[[1-[2-(3-methylaminopyrrolidin-1-yl)-2-oxo-ethyl]pyrazol-4-yl]amino]-4-pyridyl]amino]-2-methyl-3,4-dihydroisoquinolin-1-one]
1120 nM | Cc1nn(C)cc1Nc1cc(Nc2ccc(N3CCN(C(C)C)CC3)c3c2C(=O)N(C)C3)c(F)cn1 [Example 4.28, 7-[[2-[(1,3-Dimethylpyrazol-4-yl)amino]-5-fluoro-4-pyridyl]amino]-4-(4-isopropylpiperazin-1-yl)-2-methyl-isoindolin-1-one]
22700 nM | CN1CCN(c2[nH]nc(Nc3cc(Nc4cccc5c4C(=O)N(C)CC5)c(F)cn3)c2C#N)CC1 [Example 4.29, 3-[[5-Fluoro-4-[(2-methyl-1-oxo-3,4-dihydroisoquinolin-8-yl)amino]-2-pyridyl]amino]-5-(4-methylpiperazin-1-yl)-1H-pyrazole-4-carbonitrile]
6 nM | Cc1nn(C)cc1Nc1cc(Nc2cccc3c2C(=O)N(C)CC3)c(C(F)(F)F)cn1 [Example 5.01, 8-[[2-[(1,3-dimethylpyrazol-4-yl)amino]-5-(trifluoromethyl)-4-pyridyl]amino]-2-methyl-3,4-dihydroisoquinolin-1-one]

IC50 | Structure (SMILES)
9 nM | CNC(=O)c1c(Nc2cc(Nc3cn(C)nc3C)ncc2C(F)(F)F)cccc1OC [Example 5.02, 2-[[2-[(1,3-dimethylpyrazol-4-yl)amino]-5-(trifluoromethyl)-4-pyridyl]amino]-6-methoxy-N-methyl-benzamide]
6 nM | Cc1nn(C)cc1Nc1cc(Nc2cccc3c2C(=O)N(C)CCO3)c(C(F)(F)F)cn1 [Example 5.03, 6-[[2-[(1,3-dimethylpyrazol-4-yl)amino]-5-(trifluoromethyl)-4-pyridyl]amino]-4-methyl-2,3-dihydro-1,4-benzoxazepin-5-one]
6 nM | CN1CCc2cccc(Nc3cc(Nc4ccnn4C)ncc3Cl)c2C1=O [Example 6.01, 8-[[5-chloro-2-[(2-methylpyrazol-3-yl)amino]-4-pyridyl]amino]-2-methyl-3,4-dihydroisoquinolin-1-one]
7 nM | Cc1cc(Nc2cc(Nc3cccc4c3C(=O)N(C)CC4)c(Cl)cn2)n(C)n1 [Example 6.02, 8-[[5-chloro-2-[(2,5-dimethylpyrazol-3-yl)amino]-4-pyridyl]amino]-2-methyl-3,4-dihydroisoquinolin-1-one]
5 nM | Cc1c(Nc2cc(Nc3cccc4c3C(=O)N(C)CC4)c(Cl)cn2)cnn1C [Example 6.03, 8-[[5-chloro-2-[(1,5-dimethylpyrazol-4-yl)amino]-4-pyridyl]amino]-2-methyl-3,4-dihydroisoquinolin-1-one]
6 nM | CCn1cc(Nc2cc(Nc3cccc4c3C(=O)N(C)CC4)c(Cl)cn2)c(C)n1 [Example 6.04, 8-[[5-chloro-2-[(1-ethyl-3-methyl-pyrazol-4-yl)amino]-4-pyridyl]amino]-2-methyl-3,4-dihydroisoquinolin-1-one]
10 nM | CN1CCc2cccc(Nc3cc(Nc4cc(C5CC5)nn4C)ncc3Cl)c2C1=O [Example 6.05, 8-[[5-chloro-2-[(5-cyclopropyl-2-methyl-pyrazol-3-yl)amino]-4-pyridyl]amino]-2-methyl-3,4-dihydroisoquinolin-1-one]
4 nM | CCn1nccc1Nc1cc(Nc2cccc3c2C(=O)N(C)CC3)c(Cl)cn1 [Example 6.06, 8-[[5-chloro-2-[(2-ethylpyrazol-3-yl)amino]-4-pyridyl]amino]-2-methyl-3,4-dihydroisoquinolin-1-one]
9 nM | CN1CCc2cccc(Nc3cc(Nc4ccn(C)n4)ncc3Cl)c2C1=O [Example 6.07, 8-[[5-chloro-2-[(1-methylpyrazol-3-yl)amino]-4-pyridyl]amino]-2-methyl-3,4-dihydroisoquinolin-1-one]
5620 nM | CCc1nn(C(C)(C)C)c(Nc2cc(Nc3cccc4c3C(=O)N(C)CC4)c(Cl)cn2)c1C [Example 6.08, 8-[[2-[(2-tert-butyl-5-ethyl-4-methyl-pyrazol-3-yl)amino]-5-chloro-4-pyridyl]amino]-2-methyl-3,4-dihydroisoquinolin-1-one]
71 nM | CC(C)Cn1cc(Nc2cc(Nc3cccc4c3C(=O)N(C)CC4)c(Cl)cn2)cn1 [Example 6.09, 8-[[5-chloro-2-[(1-isobutylpyrazol-4-yl)amino]-4-pyridyl]amino]-2-methyl-3,4-dihydroisoquinolin-1-one]
6 nM | CNC(=O)c1ccccc1Nc1cc(Nc2ccnn2C)ncc1C(F)(F)F [Example 8.01, N-methyl-2-[[2-[(2-methylpyrazol-3-yl)amino]-5-(trifluoromethyl)-4-pyridyl]amino]benzamide]
8 nM | CNC(=O)c1ccccc1Nc1cc(Nc2cc(C)nn2C)ncc1C(F)(F)F [Example 8.02, 2-[[2-[(2,5-dimethylpyrazol-3-yl)amino]-5-(trifluoromethyl)-4-pyridyl]amino]-N-methyl-benzamide]
6 nM | CNC(=O)c1ccccc1Nc1cc(Nc2cnn(C)c2C)ncc1C(F)(F)F [Example 8.03, 2-[[2-[(1,5-dimethylpyrazol-4-yl)amino]-5-(trifluoromethyl)-4-pyridyl]amino]-N-methyl-benzamide]
6 nM | CCn1cc(Nc2cc(Nc3ccccc3C(=O)NC)c(C(F)(F)F)cn2)c(C)n1 [Example 8.04, 2-[[2-[(1-ethyl-3-methyl-pyrazol-4-yl)amino]-5-(trifluoromethyl)-4-pyridyl]amino]-N-methyl-benzamide]
14 nM | CCn1cc(Nc2cc(Nc3ccccc3C(=O)NC)c(C(F)(F)F)cn2)cn1 [Example 8.05, 2-[[2-[(1-ethylpyrazol-4-yl)amino]-5-(trifluoromethyl)-4-pyridyl]amino]-N-methyl-benzamide]
